Measurements taken from PubChem BioAssay (NCI).
Values joined by “and” are separate entries in the source; they are usually repeats but may differ in a detail not shown here. Identical values can stand only once.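 These data come from cells grown in 96-well plates and exposed to compound for 48 hours at five concentrations. At the GI50, growth is halved. TGI denotes the concentration required for complete inhibition of growth.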

How the values were obtained:
Assay in all cases: NCI-60 cell line screen, 48 h
RXF 393 renal = tested on: RXF 393 renal
T-47D breast = tested on: T-47D breast
TK-10 renal = tested on: TK-10 renal
SNB-19 CNS = tested on: SNB-19 CNS
PC-3 prostate = tested on: PC-3 prostate
SK-MEL-5 melanoma = tested on: SK-MEL-5 melanoma
KM12 colon = tested on: KM12 colon
HL-60(TB) leukemia = tested on: HL-60(TB) leukemia
DMS 273 small cell lung = tested on: DMS 273 small cell lung
DLD-1 colon = tested on: DLD-1 colon

| Structure (SMILES) | GI50 (RXF 393 renal) | TGI (RXF 393 renal) | GI50 (T-47D breast) | TGI (T-47D breast) | GI50 (TK-10 renal) | TGI (TK-10 renal) | GI50 (SNB-19 CNS) | TGI (SNB-19 CNS) | GI50 (PC-3 prostate) | TGI (PC-3 prostate) | GI50 (SK-MEL-5 melanoma) | TGI (SK-MEL-5 melanoma) | GI50 (KM12 colon) | TGI (KM12 colon) | GI50 (HL-60(TB) leukemia) | TGI (HL-60(TB) leukemia) [µM] | TGI (DMS 273 small cell lung) [µM] | TGI (DLD-1 colon) [µM] |
| --- | --- | --- | --- | --- | --- | --- | --- | --- | --- | --- | --- | --- | --- | --- | --- | --- | --- | --- |
| CCOc1ccccc1CCN=C1NC(=O)/C(=C/c2ccc3ncccc3c2)S1 | 1.31 µM | 10.5 µM | 1.46 µM | > 25 µM | 1.35 µM | > 23.3 µM | 1.46 µM | > 25 µM | 0.562 µM | 3.99 µM | 2.05 µM | 15.2 µM | 0.725 µM | 10.1 µM | 0.789 µM | 2.65 | – | – |
| Cc1ccc2cnc(N)c(C#Cc3cc(C(=O)Nc4ccc(CN5CCN(C)CC5)c(C(F)(F)F)c4)cnc3C)c2c1 | 0.676 µM | 1.35 µM | 9.23 µM | 36.7 µM | 0.731 µM | 1.48 µM | 0.891 µM | 1.89 µM | 0.734 µM | 1.56 µM | 1.08 µM | 2.49 µM | 0.005 µM | 1.02 µM | 1.73 µM | 6.58 | – | – |
| O=C(Nc1cccc(Cl)c1)Nn1cnnc1 | > 50 µM | > 100 µM | > 50 µM | > 100 µM | > 50 µM | > 100 µM | > 50 µM | > 100 µM | > 50 µM | > 100 µM | > 50 µM | > 100 µM | > 50 µM | > 100 µM | > 50 µM | > 100 | – | – |
| CC1=C2C(=C[C@@](C)(CO)[C@@H]2OC(=O)N(C)CCN(C)C(=O)OC(C)(C)C)C(=O)[C@](C)(O)C12CC2 | 1.22 µM | 4.06 µM | 5.05 µM | 35.2 µM | 13.6 µM | 35.2 µM | 10.9 µM | > 50 µM | 7.19 µM | 28.6 µM | 8.84 µM | 16.4 µM | 9.9 µM | > 50 µM | 2.3 µM | 46.4 | – | – |
| O=C(N/N=C/c1ccccc1O)N/N=C/c1ccccc1O | – | > 100 µM | – | – | – | > 100 µM | – | > 100 µM | – | – | – | – | – | – | – | > 100 | > 100 | > 100 |
| CCCN1C(=O)NC(=O)C(CC)(N2C(=O)c3c(F)c(F)c(F)c(F)c3C2=O)C1=O (stereo not drawn) | 2.28 µM | 4.45 µM | 2.01 µM | 4.8 µM | 2.29 µM | 6 µM | 2.44 µM | 6.53 µM | 1.95 µM | 5.62 µM | 2.37 µM | 7.71 µM | 1.42 µM | 2.84 µM | 1.97 µM | 4.33 | – | – |
| N#CC(N)=Nc1ccccc1 | – | – | – | – | – | > 100 µM | – | > 100 µM | – | – | – | > 100 µM | – | > 100 µM | – | > 100 | > 100 | > 100 |
| COC(=O)C1=CO[C@@H](OC2CC(CO)C(O)C(O)C2O)[C@@H]2[C@@H](C)[C@@H](OC(=O)/C=C/c3ccccc3)[C@@H](O)[C@H]12 (stereo partly drawn) (tested in a mixture with another compound) | – | – | – | – | – | > 100 µM | – | – | – | – | – | > 100 µM | – | > 100 µM | – | > 100 | – | > 100 |
| O=C1CC(CC(=O)C2CCCCC2=O)C(=O)N1 (stereo not drawn) | – | > 100 µM | – | – | – | > 100 µM | – | > 100 µM | – | – | – | – | – | > 100 µM | – | > 100 | > 100 | > 100 |
| Nc1nc2ccc(-c3nc4ccc5[nH]ncc5c4c4c3CCC4)cc2s1 | 0.238 µM | 1.77 µM | 0.408 µM | 15.3 µM | 1.11 µM | 9.73 µM | 0.318 µM | 11.4 µM | 0.308 µM | 14 µM | 0.238 µM | 1.68 µM | 0.205 µM | 9.01 µM | 0.168 µM | 7.93 | – | – |
| O=S(=O)(/N=c1\scc(-c2ccccc2)n1-c1ccccc1)c1ccc(N2N=C3c4ccccc4CC3C2c2ccc(Cl)cc2)cc1 (stereo not drawn) | 42 µM | > 100 µM | > 100 µM | > 100 µM | 29.6 µM | > 100 µM | 78.8 µM | > 100 µM | 19.1 µM | > 100 µM | 25.2 µM | 75 µM | 19.9 µM | 89 µM | 29.6 µM | 69 | – | – |
| Cn1ncc(-c2ccc3c(=O)[nH]nc(CN)c3c2)c1-c1c(F)c(Cl)cc(OC2CC2)c1C#N | 6.22 µM and 2.24 µM | 21.4 µM and 12.9 µM | 12.3 µM and 6.06 µM | 36.5 µM and 28.4 µM | 16.2 µM and 13.7 µM | 31.8 µM and 27.2 µM | 15.3 µM and 14.6 µM | 31.7 µM and 29.5 µM | 19.9 µM and 17.1 µM | 66.8 µM and 48.2 µM | 12 µM and 14.3 µM | 24.4 µM and 27.5 µM | 13.9 µM and 12.4 µM | 28.3 µM and 25.6 µM | 20.6 µM and 23.1 µM | > 100 | – | – |
